“And” between values parts separate entries of the source, which are not always exact repeats. Identical values can stand only once.
Legend:
[1] = tested on: peripheral blood T cells (CD3), B cells (CD20), monocytes (CD14), lymphocytes; assay: Leukocyte repopulation in peripheral blood of renal allograft patients; format: in vivo, human
Experimental: (§1) Patients and Protocol Therapy. Primary renal allograft patients received a non-HLA-identical kidney from either cadaveric or living donors. Subjects were 18-60 years of age and had between 1-6 MHC antigen mismatches with the kidney allograft. Kidney transplant recipients were given CAMPATH-1H (Alemtuzumab, ILEX Oncology, Inc.) at day −1 and day 0 of transplant (40 mg total dose), followed by long-term treatment with rapamycin at levels averaging 9 ng/ml. […] Another […] patients were enrolled in the control arm. The latter group received anti-CD25 (Basiliximab, Novartis, East Hanover, N.J.) induction therapy, along with conventional long-term immunosuppressants (CsA, steroids, and MMF). All patients gave written informed consent to participate in the study. The protocol was given approval by the Institutional Review Board at the University of Wisconsin-Madison.
In renal allograft recipients treated with CAMPATH-1H, immunodepletion is profound, with a 2-3 log reduction in peripheral lymphocytes at the outset (See, e.g., Brett et al., Immunology 1996, 88,13). […] Although monocytes and B cells recovered to baseline numbers by 3 and 12-months, respectively, T cell levels were slow to repopulate, recovering to approximately 50% baseline by 36 months. CD4+ and CD8+ T cell subsets were at an approximate 2:1 ratio pre-transplant, yet CD8+ T cells recovered at a relatively constant 1:1 ratio with CD4+ cells in CAMPATH-treated patients (See FIG. 6b).

[2] = tested on: CD3+, CD4+ and CD8+ recipient T cells; assay: CFSE-MLR proliferation assay with recipient PBMC; format: cell-based, human; conditions: patient UW19, response to third party antigen, 12 months
From the text: To examine the proliferative response of host T cells to donor antigen, purified responder PBMC's were labeled with CFSE. In an effort to keep the APC source constant, only PBMC's from living donors and third parties were used.
For simplicity, the loss of CFSE intensity was designated “percent proliferation” or “percent CFSE low” (e.g., even though, generally, this is a measure of the actual number of daughter cells initially involved in the response).

[3] = tested on: recipient T cells (alloreactivity to donor antigen); assay: IFN-γ kinetics assay in the 5-day CFSE-MLR of renal allograft patients; format: cell-based, human; set-up: key to IFN-γ assay: HYPO: hyporesponsive; EQL: equal response to donor and third-party antigen; HYPR: hyperresponsive to donor Ag; UN: no response to donor Ag; conditions: for IFN-γ assay: per patient, month 12, response to donor versus third-party antigen
Experimental: (§2) CFSE-MLR Assay. Blood was collected at 12 months post-transplant, and PBMC's purified by Ficoll gradient separation. Recipient PBMC's were labeled with 5.0 μM CFSE for 10 minutes at 37° C., upon which 1 ml of cold FCS was added to stop further staining. Cells were then washed once in complete media, and used as responder cells in an MLR in which both proliferation and kinetics of cytokine expression were measured in response to irradiated donor, third party, or autologous stimulator PBMC's. The number of class I and class II MHC mismatches between host/donor and host/third party were kept as consistent as possible with the available third parties from which to choose. A total of 2×10^5 responder and 2×10^5 stimulator cells/well were added to a 96-well round-bottom plate, in a total of 200 μl/well complete RPMI with 15% FCS. Cultures were set up in quintuplet wells such that the supernatants could be collected every 24 hours during the 5-day MLR. On day 5, T cell proliferation was measured by flow cytometry using PE-conjugated anti-CD3, CD4, and CD8 antibodies. Live cells were gated out by PI, and subsequent PE-positive cells in the lymphocyte gate were analyzed for their loss of CFSE intensity. On average, 4000 live lymphocytes were acquired for analysis using CellQuest software and a FACSCAN flow cytometer. Proliferation was analyzed using FlowJo software (Tree Star, Inc.).
Cytokine Kinetics Test. Cytokine expression levels in the MLR supernatants were measured using a multi-cytokine fluorescent bead detection system (BeadLyte, Upstate, Inc.). Fifty μl of Day 1-5 supernatants were utilized to analyze the cytokines: IL-1β, IL-2, IL-4, IL-6, IL-8, IL-10, IL-12, GM-CSF, TNF-α, and IFN-γ.
Additional information was obtained from the 5-day CFSE-MLR by collecting supernatants at 24-hour intervals and analyzing them for the expression of IFN-γ. The kinetic patterning gave a comprehensive picture of alloreactivity which could be categorized into 4 distinct groups: 1) patients who responded equally well to donor and third party antigen, 2) those who were hypo-responsive to donor, 3) those who were hyper-responsive to donor, and 4) those who were completely unresponsive to donor as opposed to third party antigen (See FIG. 4). […] Statistically, there was no bias in the hypo- (P=0.51) or hyper-responsive (P=0.73) groups using the 1-tailed Fisher's exact test. […] Therefore, the donor unresponsiveness of these 4 patients cannot simply be attributed to low T cell counts. Taken together, the present invention provides that CAMPATH-rapamycin immunotherapy promotes T cell unresponsiveness in at least a subset of renal allograft recipients.

[4] = tested on: recipient T cells (alloreactivity to donor antigen); assay: GM-CSF kinetics assay in the 5-day CFSE-MLR of renal allograft patients; format: cell-based, human; set-up: key: HYPO: hyporesponsive; EQL: equal response to donor and third-party antigen; HYPR: hyperresponsive to donor Ag; UN: no response to donor Ag; conditions: per patient, month 12, response to donor versus third-party antigen
Experimental: as §2, with “Cultures were set up in quintuplet wells such that the supernatants could be collected every 24 hours during the 5-day MLR.” left out, “On average, 4000 live lymphocytes were acquired for analysis using CellQuest software and a FACSCAN flow cytometer.” left out
Cytokine Kinetics Test. Cytokine expression levels in the MLR supernatants were measured using a multi-cytokine fluorescent bead detection system (BeadLyte, Upstate, Inc.). […]

kidney allograft = assay: Protocol kidney biopsy after transplantation; format: in vivo, human; conditions: for M12 biopsy: kidney biopsy 12 months after transplantation, per patient
Experimental: as §1
Among the 15 CAMPATH-treated recipients, 10 used a single drug (9 with Sirolimus and 1 with Tacrolimus) for their maintenance immunosuppressive therapy. […] In the control group, all 8 patients were treated with a combination of CsA, MMF and prednisone for their immunosuppressive maintenance.

[5] = tested on: peripheral blood T cells (CD3), B cells (CD20), monocytes (CD14), lymphocytes; conditions: renal allograft recipients, at the outset; cited from earlier work
[6] = IFN-γ kinetics, 12 months, n=15 Campath, n=8 Control
[7] = maintenance Tacrolimus, prednisone

Substance: Campath: humanized monoclonal antibody that binds CD52; induction therapy followed by long-term rapamycin
- T cell levels recovered ([1]; by 36 months): approximately 50 % baseline
- lymphocyte repopulation (total lymphocyte count versus pre-transplant) ([1]; month 12 post-transplant): below 50 % baseline
- time at which B cells recovered to baseline numbers ([1]; peripheral blood, 29 patients): ≤ 12 months
- time at which monocytes recovered to baseline numbers ([1]; peripheral blood, 29 patients): ≤ 3 months
- percent proliferation of CD3+ cells [2]: 6.7%
- percent proliferation of CD4+ cells [2]: 7.1%
- percent proliferation of CD8+ cells [2]: 5.1%
- Donor-specific nonresponsiveness (number of patients) [3, 6]: 4
- Equal response (number of patients) [3, 6]: 1
- Hyper-response (number of patients) [3, 6]: 2
- Hypo-response (number of patients) [3, 6]: 8
- Hyper-response (number of patients) ([3]; IFN-γ kinetics, 12 months, n=15 Campath, n=8 Control, listed as CAMPATH): Two
- IFN-γ assay ([3]; maintenance Sirolimus): HYPO (3×) and HYPR (2×) and UN (3×) and EQL
- IFN-γ assay ([3]; maintenance Sirolimus, MMF): HYPO
- IFN-γ assay ([3]; maintenance Tacrolimus): HYPO
- IFN-γ assay ([3]; maintenance Tacrolimus, MMF): HYPO
- IFN-γ assay ([3]; maintenance Tacrolimus, MMF, prednisone): HYPO
- IFN-γ assay [3, 7]: UN
- GM-CSF assay [4]: UN (4×) and HYPO (7×) and HYPR (2×) and EQL^a and EQL
- M12 biopsy (kidney allograft): normal histology
- M12 biopsy (kidney allograft; maintenance Sirolimus): Normal
- M12 biopsy (kidney allograft; maintenance Sirolimus, MMF): C4d+, humoral rejection
- M12 biopsy (kidney allograft; maintenance Tacrolimus): Normal
- M12 biopsy (kidney allograft; maintenance Tacrolimus, MMF): Normal
- M12 biopsy (kidney allograft; [7]): Acute rejection Banff 1A
- M06 biopsy (kidney allograft; kidney biopsy at month 6, M12 biopsy declined): M06 Biopsy Normal Declined M12
- reduction in peripheral lymphocytes [5]: 2-3 log
